Measurements taken from ChEMBL document CHEMBL1137222, “Architecture of P2Y nucleotide receptors: structural comparison based on sequence analysis, mutagenesis, and homology modeling” (J Med Chem, 2004).

Legend:
Type in all cases: cell-based
P2Y purinoceptor 1 [1] = target: P2Y purinoceptor 1 (Homo sapiens, UniProt P47900); experiment: Inhibition concentration required against wild type strain P2Y1 receptor expressed in COS-7 cells is determined using [3H]-MRS2279 as radioligand
P2Y purinoceptor 1 [2] = target: P2Y purinoceptor 1 (Homo sapiens, UniProt P47900, Y203A); experiment: Inhibition concentration required against human Y203A (EL2) mutant strain P2Y1 receptor expressed in COS-7 cells is determined using [3H]MRS2279 as radioligand
P2Y purinoceptor 1 [3] = target: P2Y purinoceptor 1 (Homo sapiens, UniProt P47900, Y306F); experiment: Inhibition concentration required against human Y306F mutant strain P2Y1 receptor expressed in COS-7 cells is determined using [3H]MRS2279 as radioligand
P2Y purinoceptor 1 [4] = target: P2Y purinoceptor 1 (Homo sapiens, UniProt P47900, Y306A); experiment: Inhibition concentration required against human Y306A mutant strain P2Y1 receptor expressed in COS-7 cells is determined using [3H]MRS2279 as radioligand
P2Y purinoceptor 1 [5] = target: P2Y purinoceptor 1 (Homo sapiens, UniProt P47900, Y203F); experiment: Inhibition concentration required against human Y203F mutant strain P2Y1 receptor expressed in COS-7 cells is determined using [3H]MRS2279 as radioligand
P2Y purinoceptor 1 [6] = target: P2Y purinoceptor 1 (Homo sapiens, UniProt P47900, Y273A); experiment: Inhibition concentration required against human Y273A mutant strain P2Y1 receptor expressed in COS-7 cells is determined using [3H]-MRS2279 as radioligand
P2Y purinoceptor 1 [7] = target: P2Y purinoceptor 1 (Homo sapiens, UniProt P47900, Y273F); experiment: Inhibition concentration required against human Y273F mutant strain P2Y1 receptor expressed in COS-7 cells is determined using [3H]MRS2279 as radioligand
Sequence of P2Y purinoceptor 1 (Homo sapiens, UniProt P47900, Y273F) (P47900 whole entry Y273F): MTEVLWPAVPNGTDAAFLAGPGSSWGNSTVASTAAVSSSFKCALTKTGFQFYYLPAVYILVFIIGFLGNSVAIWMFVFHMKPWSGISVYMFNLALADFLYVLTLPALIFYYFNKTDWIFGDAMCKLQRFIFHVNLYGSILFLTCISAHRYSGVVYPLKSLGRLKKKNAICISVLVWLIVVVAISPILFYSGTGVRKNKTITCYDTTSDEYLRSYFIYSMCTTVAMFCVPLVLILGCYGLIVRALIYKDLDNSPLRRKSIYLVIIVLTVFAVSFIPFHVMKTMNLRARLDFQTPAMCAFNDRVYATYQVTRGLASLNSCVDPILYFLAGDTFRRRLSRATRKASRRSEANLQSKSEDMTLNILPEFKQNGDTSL

Sequence of P2Y purinoceptor 1 (Homo sapiens, UniProt P47900, Y203F) (P47900 whole entry Y203F): as the sequence (P47900 whole entry Y273F) above, with Y203F, F273Y counted along it
Sequence of P2Y purinoceptor 1 (Homo sapiens, UniProt P47900, Y273A) (P47900 whole entry Y273A): as the sequence (P47900 whole entry Y273F) above, with F273A counted along it
Sequence of P2Y purinoceptor 1 (Homo sapiens, UniProt P47900, Y306F) (P47900 whole entry Y306F): as the sequence (P47900 whole entry Y273F) above, with F273Y, Y306F counted along it
Sequence of P2Y purinoceptor 1 (Homo sapiens, UniProt P47900, Y306A) (P47900 whole entry Y306A): as the sequence (P47900 whole entry Y273F) above, with F273Y, Y306A counted along it
Sequence of P2Y purinoceptor 1 (Homo sapiens, UniProt P47900, Y203A) (P47900 whole entry Y203A): as the sequence (P47900 whole entry Y273F) above, with Y203A, F273Y counted along it
Sequence of P2Y purinoceptor 1 (Homo sapiens, UniProt P47900) (P47900 whole entry): as the sequence (P47900 whole entry Y273F) above, with F273Y counted along it

IC50 (P2Y purinoceptor 1 [1]): 210 nM | IC50 (P2Y purinoceptor 1 [2]): 740 nM | IC50 (P2Y purinoceptor 1 [3]): 980 nM | IC50 (P2Y purinoceptor 1 [4]): 320 nM | IC50 (P2Y purinoceptor 1 [5]): 330 nM | IC50 (P2Y purinoceptor 1 [6]): 480 nM | IC50 (P2Y purinoceptor 1 [7]): 660 nM
SMILES: CNc1ncnc2c1ncn2[C@H]1CC(OP(=O)(O)O)[C@@H](COP(=O)(O)O)O1 (single isomer, unassigned)
